In brackets after ≈: the same amount, converted by molar mass.
These molecules were tested on Mtb (PDR) 12700 (assay: Resazurin microtiter assay (REMA), MIC Mtb (PDR) 12700). Details: Mycobacterium tuberculosis; PDR = poly drug resistant (isoniazid and streptomycin).
Type: cell-based

Row | SMILES | MIC [ng/mL]
1 | Cc1c(C(F)(F)F)cc([N+](=O)[O-])c2sc(N3CCC4(CC3)OC[C@H](C)O4)nc(=O)c12 [Example 9b, (S)-5-Methyl-2-(2-methyl-1,4-dioxa-8-azaspiro[4.5]decan-8-yl)-8-nitro-6-(trifluoromethyl)-4H-1,3-benzothiazin-4-one] | 4 (≈ 8.98 nM)
2 | Cc1c(C(F)(F)F)cc([N+](=O)[O-])c2sc(N3CCN(CC4CCCCC4)CC3)nc(=O)c12 [Example 16, 2-(4-(Cyclohexylmethyl)piperazin-1-yl)-5-methyl-8-nitro-6-(trifluoromethyl)-4H-1,3-benzothiazin-4-one] | ≤ 0.063
3 | Cc1c(C(F)(F)F)cc2c(=O)nc(N3CCC4(CC3)OC[C@H](C)O4)sc2c1[N+](=O)[O-] [Example 9a, (S)-7-Methyl-2-(2-methyl-1,4-dioxa-8-azaspiro[4.5]decan-8-yl)-8-nitro-6-(trifluoromethyl)-4H-1,3-benzothiazin-4-one] | 250 (≈ 561 nM)
4 | C[C@H]1COC2(CCN(c3nc(=O)c4cc(C(F)(F)F)cc([N+](=O)[O-])c4s3)CC2)O1 [BTZ043, (S)-2-(2-methyl-1,4-dioxa-8-azaspiro[4.5]decan-8-yl)-8-nitro-6-(trifluoro-methyl)-4H-1,3-benzothiazin-4-one, reference compound] | 2 (≈ 4.64 nM)
